Test results taken from patent publication US20260001889A1, “COMPOSITIONS USEFUL FOR MODULATING SPLICING” (Skyhawk Therapeutics, Inc., priority 2022, published 2026).

Experiments:
[1] = test system: ATXN3 transcripts containing exon 4; experiment: ATXN3 Quantitative Splicing Assay (qPCR, E4E5 primers/probe); format: cell-based; conditions: Homo sapiens, SK-N-MC cells, compounds for 24 h
Summary of the method: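 SK-N-MC human neuroblastoma cells treated 24 h with compound from 30 μM to 0.6 nM, 24 h after plating. Lysate cDNA was run in TaqMan qPCR, with primers/probe E4E5 detecting exon 4-containing ATXN3 transcripts and E8E9 measuring total ATXN3.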

[2] = test system: total ATXN3 protein; experiment: ATXN3 Total Protein Assay (Mesoscale Discovery, SK-N-MC cells); format: cell-based, Human; conditions: incubation for 48 hours, MSD assay
Description: Example 35: ATXN3 Total Protein Assay
Human neuroblastoma SK-N-MC cells were seeded at 10,000 cells/well in 384 well plates one day prior to compound treatment. The concentrations of compounds were tested at appropriate doses ranging from 30 μM to 0.6 nM. After incubation for 48 hours, the cells were lysed with 25 μL of lysis buffer containing protease inhibitors, and total ATXN3 protein levels were assessed by Mesoscale Discovery (MSD) assay developed with one pair of anti-ATXN3 antibodies. The capture and detect antibodies were raised in mouse and rabbit respectively. Anti-rabbit MSD-ST antibody was used for secondary antibody.
ATXN3 recombinant protein was used for standards. The readouts were captured with 35 μL of MSD read buffer and multi-array 384-well high binding plates.

[3] = test system: ATXN3-HiBiT protein; experiment: ATXN3 Total Protein Assay (Kelly-ATXN3-HiBiT luminescence); format: cell-based; conditions: Kelly-ATXN3-HiBiT cells, 48 h after addition of compound
Summary of the method: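 Kelly cells with homozygous C-terminal HiBiT knock-in on endogenous ATXN3, 2000 per well, dosed 24 h after seeding. HiBiT lytic luminescence read 48 h after compound; sister plate read with CellTiter-Glo for viability; fold change vs DMSO.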

Row | SMILES | IC50 [1] | IC50 [2] | EC50 [3]
1 | C#Cc1c(C[C@@H](N)COC)oc2c(NCc3cccs3)cc(Cl)nc12 [Compound 61, 2-[(R)-2-amino-3-methoxypropyl]-5-chloro-3-ethynyl-7-thenylamino-1-oxa-4-azaindene] | 0.01 to 100 nM | 0.01 to 100 nM | 0.01 to 100 nM
2 | C#Cc1c(C[C@H](C)N)oc2c(NCc3nccs3)cc(Cl)nc12 [Compound 62, 2-[(S)-2-aminopropyl]-5-chloro-3-ethynyl-7-{[(1,3-thiazol-2-yl)methyl]amino}-1-oxa-4-azaindene] | 101 to 500 nM | 101 to 500 nM | 0.01 to 100 nM
3 | C#Cc1c(C[C@H](C)N)oc2c(NCc3cccs3)cc(Cl)nc12 [Compound 63, 2-[(2S)-2-aminopropyl]-5-chloro-3-ethynyl-N-(thiophen-2-ylmethyl)furo[3,2-b]pyridin-7-amine] | 0.01 to 100 nM | 0.01 to 100 nM | 0.01 to 100 nM
4 | C#Cc1c(C[C@H](C)N)oc2c(NCc3ccco3)cc(Cl)nc12 [Compound 64, 2-[(S)-2-aminopropyl]-5-chloro-3-ethynyl-7-(furfurylamino)-1-oxa-4-azaindene] | 0.01 to 100 nM | 0.01 to 100 nM | 0.01 to 100 nM
5 | C#Cc1c(C[C@@H](N)COC)oc2c(NCc3nccs3)cc(Cl)nc12 [Compound 65, 2-[(R)-2-amino-3-methoxypropyl]-5-chloro-3-ethynyl-7-{[(1,3-thiazol-2-yl)methyl]amino}-1-oxa-4-azaindene] | 101 to 500 nM | 101 to 500 nM | 101 to 500 nM
6 | C#Cc1c(C[C@@H](N)COC)oc2c(NCc3ccco3)cc(Cl)nc12 [Compound 66, 2-[(R)-2-amino-3-methoxypropyl]-5-chloro-3-ethynyl-7-(furfurylamino)-1-oxa-4-azaindene] | 0.01 to 100 nM | 0.01 to 100 nM | 0.01 to 100 nM
7 | C#CC[C@H](N)Cc1oc2c(NCc3cccs3)cc(Cl)nc2c1Br [Compound 77, 2-[(S)-2-amino-4-pentynyl]-3-bromo-5-chloro-7-thenylamino-1-oxa-4-azaindene] | 0.01 to 100 nM | 0.01 to 100 nM | 0.01 to 100 nM
8 | NC(Cc1oc2c(NCc3cccs3)cc(Cl)nc2c1Br)CC1(F)CC1 (stereo not drawn) [Compound 85, 2-[2-amino-3-(1-fluorocyclopropyl)propyl]-3-bromo-5-chloro-7-thenylamino-1-oxa-4-azaindene] | 101 to 500 nM | 101 to 500 nM | 101 to 500 nM
9 | C#C[C@H](N)Cc1oc2c(NCc3cccs3)cc(Cl)nc2c1Br [Compound 88, 2-[(R)-2-amino-3-butynyl]-3-bromo-5-chloro-7-thenylamino-1-oxa-4-azaindene] | 0.01 to 100 nM | 0.01 to 100 nM | 101 to 500 nM
10 | C[C@H](F)[C@H](N)Cc1oc2c(NCc3nccs3)cc(Cl)nc2c1Br [Compound 90, 2-[(2R,3S)-2-amino-3-fluorobutyl]-3-bromo-5-chloro-7-{[(1,3-thiazol-2-yl)methyl]amino}-1-oxa-4-azaindene] | 0.01 to 100 nM | 0.01 to 100 nM | 0.01 to 100 nM
11 | C[C@@H](F)[C@H](N)Cc1oc2c(NCc3nccs3)cc(Cl)nc2c1Br [Compound 91, 2-[(2R,3R)-2-amino-3-fluorobutyl]-3-bromo-5-chloro-7-{[(1,3-thiazol-2-yl)methyl]amino}-1-oxa-4-azaindene] | 501 to 5000 nM | 501 to 5000 nM | 501 to 5000 nM
12 | C[C@H](F)[C@H](N)Cc1oc2c(NCc3ccccc3)cc(Cl)nc2c1Br [Compound 92, 2-[(2R,3S)-2-amino-3-fluorobutyl]-7-benzylamino-3-bromo-5-chloro-1-oxa-4-azaindene] | 101 to 500 nM | 101 to 500 nM | 101 to 500 nM
13 | C[C@@H](F)[C@H](N)Cc1oc2c(NCc3ccccc3)cc(Cl)nc2c1Br [Compound 93, 2-[(2R,3R)-2-amino-3-fluorobutyl]-7-benzylamino-3-bromo-5-chloro-1-oxa-4-azaindene] | 501 to 5000 nM | 501 to 5000 nM | 501 to 5000 nM
14 | C[C@H](F)[C@H](N)Cc1oc2c(NCc3ccc(F)s3)cc(Cl)nc2c1Br [Compound 94, 2-[(2R,3S)-2-amino-3-fluorobutyl]-3-bromo-5-chloro-7-{[(5-fluoro-2-thienyl)methyl]amino}-1-oxa-4-azaindene] | 101 to 500 nM | 101 to 500 nM | 101 to 500 nM
15 | C[C@@H](F)[C@H](N)Cc1oc2c(NCc3ccc(F)s3)cc(Cl)nc2c1Br [Compound 95, 2-[(2R,3R)-2-amino-3-fluorobutyl]-3-bromo-5-chloro-7-{[(5-fluoro-2-thienyl)methyl]amino}-1-oxa-4-azaindene] | 501 to 5000 nM | 501 to 5000 nM | 501 to 5000 nM
16 | C[C@H](F)[C@H](N)Cc1oc2c(NCc3sccc3F)cc(Cl)nc2c1Br [Compound 96, 2-[(2R,3S)-2-amino-3-fluorobutyl]-3-bromo-5-chloro-7-{[(3-fluoro-2-thienyl)methyl]amino}-1-oxa-4-azaindene] | 101 to 500 nM | 101 to 500 nM | 101 to 500 nM
17 | C[C@@H](F)[C@H](N)Cc1oc2c(NCc3sccc3F)cc(Cl)nc2c1Br [Compound 97, 2-[(2R,3R)-2-amino-3-fluorobutyl]-3-bromo-5-chloro-7-{[(3-fluoro-2-thienyl)methyl]amino}-1-oxa-4-azaindene] | 501 to 5000 nM | 501 to 5000 nM | 501 to 5000 nM
18 | N[C@H](Cc1oc2c(NCc3cccs3)cc(Cl)nc2c1Br)C1COC1 [Compound 98, 2-[(R)-2-amino-2-(3-oxetanyl)ethyl]-3-bromo-5-chloro-7-thenylamino-1-oxa-4-azaindene] | 501 to 5000 nM | 501 to 5000 nM | 501 to 5000 nM
19 | C[C@H](F)[C@H](N)Cc1oc2c(NCc3cccs3)cc(C#N)nc2c1Br [Compound 103, 2-[(2R,3S)-2-amino-3-fluorobutyl]-3-bromo-7-thenylamino-1-oxa-4-aza-5-indenecarbonitrile] | 101 to 500 nM | 101 to 500 nM | 101 to 500 nM
20 | Cc1c(C[C@@H](N)[C@H](C)F)oc2c(NCc3ccc(F)s3)cc(Cl)nc12 [Compound 105, 2-[(2R,3S)-2-amino-3-fluorobutyl]-5-chloro-7-{[(5-fluoro-2-thienyl)methyl]amino}-3-methyl-1-oxa-4-azaindene] | 101 to 500 nM | 501 to 5000 nM | 501 to 5000 nM
21 | Cc1c(C[C@@H](N)[C@H](C)F)oc2c(NCc3nccs3)cc(Cl)nc12 [Compound 106, 2-[(2R,3S)-2-amino-3-fluorobutyl]-5-chloro-3-methyl-7-{[(1,3-thiazol-2-yl)methyl]amino}-1-oxa-4-azaindene] | 101 to 500 nM | 101 to 500 nM | 101 to 500 nM
22 | Cc1c(C[C@@H](N)[C@H](C)F)oc2c(NCc3ccccc3)cc(Cl)nc12 [Compound 107, 2-[(2R,3S)-2-amino-3-fluorobutyl]-7-benzylamino-5-chloro-3-methyl-1-oxa-4-azaindene] | 101 to 500 nM | 501 to 5000 nM | 101 to 500 nM
23 | C[C@H](F)[C@H](N)Cc1oc2c(NCc3ccc(F)s3)cc(Cl)nc2c1Cl [Compound 108, 2-[(2R,3S)-2-amino-3-fluorobutyl]-3,5-dichloro-7-{[(5-fluoro-2-thienyl)methyl]amino}-1-oxa-4-azaindene] | 101 to 500 nM | 101 to 500 nM | 101 to 500 nM
